In PubChem BioAssay AID330 (DTP/NCI, 2004):
Values joined by “and” are separate entries in the source; they are usually repeats but may differ in a detail not shown here. Identical values can stand only once. Inconclusive results and toxic doses are left out. How the source made its calls: active means survival T/C of 150% or more; inactive means T/C below 125% in these data.

System: P388 leukemia ip, CD2F1 mice, survival T/C
Assay: NCI In Vivo Anticancer Drug Screen. Data for tumor model P388 Leukemia (intraperitoneal) in CD2F1 (CDF1) mice
Conditions: endpoint: median survival time, higher = longer survival
In short: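 Mice carrying the transplanted tumor received test compound or vehicle. Survival was recorded in each group, and the value is the treated-group measurement divided by that of the vehicle-treated control group.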

[1] = dose: 50.0 mg/kg/injection, schedule: Q01DX009 (ip), vehicle: saline with Tween-80
[2] = dose: 100.0 mg/kg/injection, schedule: Q01DX009 (ip), vehicle: saline with Tween-80
[3] = dose: 200.0 mg/kg/injection, schedule: Q01DX009 (ip), vehicle: saline with Tween-80
[4] = dose: 60.0 mg/kg/injection, schedule: Q01DX005 (ip), vehicle: saline with Tween-80
[5] = dose: 120.0 mg/kg/injection, schedule: Q01DX005 (ip), vehicle: saline with Tween-80
[6] = dose: 240.0 mg/kg/injection, schedule: Q01DX005 (ip), vehicle: saline with Tween-80
[7] = dose: 50.0 mg/kg/injection, schedule: Q01DX009 (ip), vehicle: saline
[8] = dose: 100.0 mg/kg/injection, schedule: Q01DX009 (ip), vehicle: saline
[9] = dose: 200.0 mg/kg/injection, schedule: Q01DX009 (ip), vehicle: saline
[10] = dose: 50.0 mg/kg/injection, schedule: Q01DX005 (ip), vehicle: saline with Tween-80
[11] = dose: 100.0 mg/kg/injection, schedule: Q01DX005 (ip), vehicle: saline with Tween-80
[12] = dose: 200.0 mg/kg/injection, schedule: Q01DX005 (ip), vehicle: saline with Tween-80

Measured: T/C

C=C1CCC2C(C)(CCC(OCCCCC)C2(C)C(=O)OC)C1CCc1ccoc1 (stereo not drawn)
inactive: dose: 8.25 mg/kg/injection, schedule: Q01DX005 (ip), vehicle: Klucel + Tween-80 100 % of control | dose: 16.5 mg/kg/injection, schedule: Q01DX005 (ip), vehicle: Klucel + Tween-80 102 % of control | dose: 33.0 mg/kg/injection, schedule: Q01DX005 (ip), vehicle: Klucel + Tween-80 100 % of control | dose: 66.0 mg/kg/injection, schedule: Q01DX005 (ip), vehicle: Klucel + Tween-80 94 % of control

C=C(C)c1nc(N(C)C)nc(N(C)C)n1
inactive: dose: 30.0 mg/kg/injection, schedule: Q01DX005 (ip), vehicle: Klucel (hydroxypropylcellulose) (HPC) 98 % of control | dose: 60.0 mg/kg/injection, schedule: Q01DX005 (ip), vehicle: Klucel (hydroxypropylcellulose) (HPC) 88 % of control and 95 % of control | dose: 120.0 mg/kg/injection, schedule: Q01DX005 (ip), vehicle: Klucel (hydroxypropylcellulose) (HPC) 88 % of control

CCCCN(CCCC)CCC(O)c1cc(C(F)(F)F)nc2c(C(F)(F)F)cccc12 (stereo not drawn)
inactive: [1] 104 % of control | [2] 114 % of control | [3] 100 % of control

O=C(Nc1cc(-c2ccccc2)nn1-c1ccccc1)c1ccc(Cl)cc1
inactive: [4] 99 % of control and 94 % of control | [5] 93 % of control | [6] 87 % of control and 94 % of control

Cc1nc2[nH]c(=O)ccc2c(C)c1N
inactive: dose: 25.0 mg/kg/injection, schedule: Q04DX002 (ip), vehicle: saline with Tween-80 103 % of control | dose: 50.0 mg/kg/injection, schedule: Q04DX002 (ip), vehicle: saline with Tween-80 110 % of control | dose: 100.0 mg/kg/injection, schedule: Q04DX002 (ip), vehicle: saline with Tween-80 100 % of control

O=c1[nH]cnc2n[nH]nc12
inactive: dose: 12.5 mg/kg/injection, schedule: Q01DX009 (ip), vehicle: saline with Tween-80 107 % of control | dose: 25.0 mg/kg/injection, schedule: Q01DX009 (ip), vehicle: saline with Tween-80 100 % of control | [1] 117 % of control | [2] 109 % of control | [3] 121 % of control

CCOc1cc(CN2CCN(CCO)CC2)c(O)c(CN2CCN(CCO)CC2)c1
inactive: dose: 60.0 mg/kg/injection, schedule: Q01DX005 (ip), vehicle: water 97 % of control | dose: 120.0 mg/kg/injection, schedule: Q01DX005 (ip), vehicle: water 103 % of control | dose: 240.0 mg/kg/injection, schedule: Q01DX005 (ip), vehicle: water 104 % of control

CC(=O)NC(Cc1cnc[nH]1)C(C)=O (stereo not drawn)
inactive: [7] 100 % of control | [8] 98 % of control | [9] 104 % of control

CC1(CC(C)(C)c2ccccc2)OCCO1
inactive: dose: 25.0 mg/kg/injection, schedule: Q01DX009 (ip), vehicle: water 96 % of control | dose: 50.0 mg/kg/injection, schedule: Q01DX009 (ip), vehicle: water 91 % of control | dose: 100.0 mg/kg/injection, schedule: Q01DX009 (ip), vehicle: water 102 % of control | dose: 200.0 mg/kg/injection, schedule: Q01DX009 (ip), vehicle: water 93 % of control | dose: 400.0 mg/kg/injection, schedule: Q01DX009 (ip), vehicle: water 104 % of control

CCOC(=O)/C(=C\c1cccc(OC)c1OC)CC(=O)O
inactive: dose: 25.0 mg/kg/injection, schedule: Q01DX009 (ip), vehicle: other 102 % of control | dose: 50.0 mg/kg/injection, schedule: Q01DX009 (ip), vehicle: other 107 % of control | dose: 100.0 mg/kg/injection, schedule: Q01DX009 (ip), vehicle: other 98 % of control | dose: 200.0 mg/kg/injection, schedule: Q01DX009 (ip), vehicle: other 112 % of control | dose: 400.0 mg/kg/injection, schedule: Q01DX009 (ip), vehicle: other 111 % of control

COC(=O)/C=C1/C2C=CC(O2)C1C(=O)OC (stereo not drawn)
inactive: [10] 96 % of control | [11] 99 % of control | [12] 97 % of control

C=C(C)C1Cc2c(ccc3c(=O)c4c(oc23)c(=O)oc2cc(OC)c(OC)cc24)O1 (stereo not drawn)
inactive: dose: 100.0 mg/kg/injection, schedule: Q04DX003 (ip), vehicle: saline with Tween-80 103 % of control | dose: 200.0 mg/kg/injection, schedule: Q04DX003 (ip), vehicle: saline with Tween-80 98 % of control | dose: 400.0 mg/kg/injection, schedule: Q04DX003 (ip), vehicle: saline with Tween-80 105 % of control

O=[N+]([O-])c1ccc(C2CC3COc4ccccc4C3=N2)cc1 (stereo not drawn)
inactive: dose: 18.75 mg/kg/injection, schedule: Q01DX001 (ip), vehicle: Klucel (hydroxypropylcellulose) (HPC) 88 % of control | dose: 37.5 mg/kg/injection, schedule: Q01DX001 (ip), vehicle: Klucel (hydroxypropylcellulose) (HPC) 88 % of control | dose: 75.0 mg/kg/injection, schedule: Q01DX001 (ip), vehicle: Klucel (hydroxypropylcellulose) (HPC) 94 % of control

CC(C)(C(N=Cc1ccccc1)c1ccccc1)[N+](=O)[O-] (stereo not drawn)
inactive: [4] 100 % of control | [5] 98 % of control | [6] 99 % of control

O=C(NO)/C(CC(=O)c1cccc(O)c1)=N\O
inactive: dose: 60.0 mg/kg/injection, schedule: Q01DX005 (ip), vehicle: saline 99 % of control | dose: 120.0 mg/kg/injection, schedule: Q01DX005 (ip), vehicle: saline 100 % of control | dose: 240.0 mg/kg/injection, schedule: Q01DX005 (ip), vehicle: saline 105 % of control

NC1=NC(=O)C(c2ccccc2)S1 (stereo not drawn)
inactive: dose: 12.5 mg/kg/injection, schedule: Q01DX009 (ip), vehicle: Klucel (hydroxypropylcellulose) (HPC) 103 % of control | dose: 25.0 mg/kg/injection, schedule: Q01DX009 (ip), vehicle: Klucel (hydroxypropylcellulose) (HPC) 99 % of control | dose: 50.0 mg/kg/injection, schedule: Q01DX009 (ip), vehicle: Klucel (hydroxypropylcellulose) (HPC) 113 % of control | dose: 100.0 mg/kg/injection, schedule: Q01DX009 (ip), vehicle: Klucel (hydroxypropylcellulose) (HPC) 105 % of control

O=C(CCSCCCl)Nc1c([N+](=O)[O-])cc([N+](=O)[O-])cc1S(=O)(=O)O
inactive: dose: 3.13 mg/kg/injection, schedule: Q04DX003 (ip), vehicle: DMSO 104 % of control | dose: 6.25 mg/kg/injection, schedule: Q04DX003 (ip), vehicle: DMSO 99 % of control | dose: 12.5 mg/kg/injection, schedule: Q04DX003 (ip), vehicle: DMSO 111 % of control | dose: 25.0 mg/kg/injection, schedule: Q04DX003 (ip), vehicle: DMSO 124 % of control | dose: 25.0 mg/kg/injection, schedule: Q04DX003 (ip), vehicle: olive oil, sesame oil, peanut oil 118 % of control | dose: 50.0 mg/kg/injection, schedule: Q04DX003 (ip), vehicle: DMSO 118 % of control | dose: 75.0 mg/kg/injection, schedule: Q04DX003 (ip), vehicle: DMSO 118 % of control

CCN(CC)c1ccc(Pc2ccc(N(CC)CC)cc2)cc1
inactive: dose: 12.5 mg/kg/injection, schedule: Q01DX009 (ip), vehicle: saline 104 % of control | dose: 25.0 mg/kg/injection, schedule: Q01DX009 (ip), vehicle: saline 108 % of control | [7] 99 % of control and 88 % of control | [9] 92 % of control

O=P1(Nc2ccc(Cl)cc2)N(Cc2ccc(Cl)cc2)CCCN1Cc1ccc(Cl)cc1
inactive: [10] 93 % of control | [11] 92 % of control | [12] 98 % of control

CNC/C=C/CN(C)C(=S)S
inactive: [7] 108 % of control | [8] 92 % of control | [9] 96 % of control
